Target: T1, ΔF508-CFTR (Homo sapiens, UniProt P13569, DEL508-508)
T1 construct: expressed in transfected cells
Experiment: Membrane potential optical (FRET/VIPR) assay, identification of potentiator compounds
Format: cell-based
Conditions: Table 3, assay not given; for % Activity: relative efficacy
How it was run: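 NIH3T3 mouse fibroblasts stably expressing ΔF508-CFTR, temperature-corrected 24 h at 27° C., read on VIPR by FRET between CC2-DMPE and DiSBAC2(3). Potentiators identified in a double-addition format, first adding chloride-free (gluconate) medium with or without compound.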

T1 sequence (P13569 with tags, fused parts or gaps DEL508-508): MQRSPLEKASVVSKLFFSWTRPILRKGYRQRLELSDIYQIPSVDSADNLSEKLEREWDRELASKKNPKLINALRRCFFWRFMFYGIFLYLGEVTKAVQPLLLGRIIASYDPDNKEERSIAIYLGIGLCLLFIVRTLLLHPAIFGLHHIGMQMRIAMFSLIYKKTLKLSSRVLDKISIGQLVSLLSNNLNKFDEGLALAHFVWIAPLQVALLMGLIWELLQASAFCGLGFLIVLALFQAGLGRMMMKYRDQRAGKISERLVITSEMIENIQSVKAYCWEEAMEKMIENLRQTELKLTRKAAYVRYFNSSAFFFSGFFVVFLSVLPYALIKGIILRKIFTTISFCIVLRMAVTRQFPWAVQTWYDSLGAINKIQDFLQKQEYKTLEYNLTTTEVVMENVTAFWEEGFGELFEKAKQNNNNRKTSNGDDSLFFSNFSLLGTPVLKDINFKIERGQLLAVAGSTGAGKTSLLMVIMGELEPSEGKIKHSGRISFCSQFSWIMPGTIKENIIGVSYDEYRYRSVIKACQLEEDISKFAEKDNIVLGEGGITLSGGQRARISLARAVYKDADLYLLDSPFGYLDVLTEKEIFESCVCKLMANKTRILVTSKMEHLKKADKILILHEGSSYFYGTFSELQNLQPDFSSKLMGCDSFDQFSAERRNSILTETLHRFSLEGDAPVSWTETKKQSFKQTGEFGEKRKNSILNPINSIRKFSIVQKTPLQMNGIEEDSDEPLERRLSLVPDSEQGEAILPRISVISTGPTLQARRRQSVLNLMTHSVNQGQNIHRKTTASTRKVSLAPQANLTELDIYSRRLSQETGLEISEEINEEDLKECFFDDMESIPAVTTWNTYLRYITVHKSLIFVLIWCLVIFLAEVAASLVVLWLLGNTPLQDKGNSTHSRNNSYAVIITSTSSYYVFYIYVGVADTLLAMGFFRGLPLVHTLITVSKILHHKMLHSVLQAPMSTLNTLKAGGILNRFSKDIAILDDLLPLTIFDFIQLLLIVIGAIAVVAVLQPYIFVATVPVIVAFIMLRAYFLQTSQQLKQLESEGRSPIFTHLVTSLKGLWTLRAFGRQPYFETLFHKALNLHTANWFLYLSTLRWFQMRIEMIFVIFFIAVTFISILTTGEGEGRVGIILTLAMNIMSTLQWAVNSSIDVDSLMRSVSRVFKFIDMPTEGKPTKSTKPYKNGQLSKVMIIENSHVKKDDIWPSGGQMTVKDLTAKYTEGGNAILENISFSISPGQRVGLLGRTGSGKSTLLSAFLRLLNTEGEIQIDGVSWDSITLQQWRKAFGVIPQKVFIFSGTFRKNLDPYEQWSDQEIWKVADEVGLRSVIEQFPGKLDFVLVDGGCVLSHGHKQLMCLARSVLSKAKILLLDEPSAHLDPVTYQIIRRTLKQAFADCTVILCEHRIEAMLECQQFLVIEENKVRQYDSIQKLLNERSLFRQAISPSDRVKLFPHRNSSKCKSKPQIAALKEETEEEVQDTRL

EC50 [µM]	% Activity	Structure (SMILES)
< 10	++ (between 25% to 100%)	CCc1cc(Br)ccc1NC(=O)c1c[nH]c2ccccc2c1=O [Compound 263, N-(4-bromo-2-ethyl-phenyl)-4-oxo-1H-quinoline-3-carboxamide]
25 to 60	+ (<25%)	O=C(Nc1ccc2[nH]c(=O)oc2c1)c1c[nH]c2ccccc2c1=O [Compound 152, 4-oxo-N-(2-oxo-3H-benzooxazol-6-yl)-1H-quinoline-3-carboxamide]
< 10	++ (between 25% to 100%)	Cc1cccc2[nH]cc(C(=O)Nc3ccc(OC(C)C)c(O)c3)c(=O)c12 [Compound 701, N-(3-hydroxy-4-isopropoxy-phenyl)-5-methyl-4-oxo-1H-quinoline-3-carboxamide]
< 10	++ (between 25% to 100%)	CC(C)(C)c1cc2cc[nH]c2cc1NC(=O)c1c[nH]c2cccc(F)c2c1=O [Compound 656, 5-fluoro-4-oxo-N-(5-tert-butyl-1H-indol-6-yl)-1H-quinoline-3-carboxamide]
< 10	++ (between 25% to 100%)	CC1(c2ccc(NC(=O)c3c[nH]c4cccc(O)c4c3=O)cc2)COC1 [Compound 529, 5-hydroxy-N-[4-(3-methyloxetan-3-yl)phenyl]-4-oxo-1H-quinoline-3-carboxamide]
–	++ (between 25% to 100%)	O=C(Nc1cc(O)c2ccccc2c1)c1c[nH]c2ccccc2c1=O [Compound 551, N-(4-hydroxy-2-naphthyl)-4-oxo-1H-quinoline-3-carboxamide]
< 10	++ (between 25% to 100%)	CC(C)(C)c1cc(F)c(NC(=O)c2c[nH]c3cccc(O)c3c2=O)cc1O [Compound 407, N-(2-fluoro-5-hydroxy-4-tert-butyl-phenyl)-5-hydroxy-4-oxo-1H-quinoline-3-carboxamide]
< 10	++ (between 25% to 100%)	C[C@H]1CCCN1c1ccc(NC(=O)c2c[nH]c3ccc(F)cc3c2=O)c(C(F)(F)F)c1 [Compound 714, (S)-6-fluoro-N-(4-(2-methylpyrrolidin-1-yl)-2-(trifluoromethyl)phenyl)-4-oxo-1,4-dihydroquinoline-3-carboxamide]
< 10	++ (between 25% to 100%)	O=C(Nc1ccc2c(C3CCCC3)c[nH]c2c1)c1c[nH]c2ccccc2c1=O [Compound 186, N-(3-cyclopentyl-1H-indol-6-yl)-4-oxo-1H-quinoline-3-carboxamide]
< 10	++ (between 25% to 100%)	CC(C)(C)c1cc(C(C)(C)C)c(NC(=O)c2c[nH]c3c(F)ccc(F)c3c2=O)cc1O [Compound 718, 5,8-difluoro-N-(5-hydroxy-2,4-ditert-butyl-phenyl)-4-oxo-1H-quinoline-3-carboxamide]
25 to 60	+ (<25%)	O=C(Nc1ccc(Cl)nc1)c1c[nH]c2ccccc2c1=O [Compound 392, N-(6-chloro-3-pyridyl)-4-oxo-1H-quinoline-3-carboxamide]
< 10	++ (between 25% to 100%)	O=C1CSc2ccc(NC(=O)c3c[nH]c4ccccc4c3=O)cc2N1 [Compound 262, 1,4-dihydro-N-(3,4-dihydro-3-oxo-2H-benzo[b][1,4]thiazin-6-yl)-4-oxoquinoline-3-carboxamide]
< 10	++ (between 25% to 100%)	CSc1ccccc1NC(=O)c1c[nH]c2ccccc2c1=O [Compound 229, N-(2-methylsulfanylphenyl)-4-oxo-1H-quinoline-3-carboxamide]
< 10	++ (between 25% to 100%)	Cc1ccc2c(=O)c(C(=O)Nc3ccc(N4CCC[C@@H]4C)cc3C(F)(F)F)c[nH]c2c1 [Compound 607, (S)-7-methyl-N-(4-(2-methylpyrrolidin-1-yl)-2-(trifluoromethyl)phenyl)-4-oxo-1,4-dihydroquinoline-3-carboxamide]
25 to 60	+ (<25%)	O=C(Nc1cccc2nsnc12)c1c[nH]c2ccccc2c1=O [Compound 54, 4-oxo-N-(8-thia-7,9-diazabicyclo[4.3.0]nona-2,4,6,9-tetraen-5-yl)-1H-quinoline-3-carboxamide]
25 to 60	+ (<25%)	CC(C)(C)c1ccc(NC(=O)c2c[nH]c3ccccc3c2=O)cc1CN [Compound 390, N-[3-(Aminomethyl)-4-tert-butyl-phenyl]-4-oxo-1H-quinoline-3-carboxamide]
25 to 60	+ (<25%)	O=C(Nc1ccc(N2CCOCC2)nc1)c1c[nH]c2ccccc2c1=O [Compound 400, N-(6-morpholino-3-pyridyl)-4-oxo-1H-quinoline-3-carboxamide]
< 10	+ (<25%)	CC(C)(C)c1cc(F)c(NC(=O)c2c[nH]c3c(C(F)(F)F)cccc3c2=O)cc1O [Compound 638, N-(2-fluoro-5-hydroxy-4-tert-butyl-phenyl)-4-oxo-8-(trifluoromethyl)-1H-quinoline-3-carboxamide]
< 10	++ (between 25% to 100%)	CC(C)c1ccc(NC(=O)OC(C)(C)C)cc1NC(=O)c1c[nH]c2ccccc2c1=O [Compound 60, [4-isopropyl-3-[(4-oxo-1H-quinolin-3-yl)carbonylamino]phenyl]aminoformic acid tert-butyl ester]

EC50 [µM]	% Activity	Structure (SMILES)
25 to 60	+ (<25%)	CC(=O)c1cccc(NC(=O)c2c[nH]c3ccccc3c2=O)c1 [Compound 328, N-(3-acetylphenyl)-4-oxo-1H-quinoline-3-carboxamide]
< 10	++ (between 25% to 100%)	Cc1cc(C)c(NC(=O)c2c[nH]c3ccccc3c2=O)c(C)c1 [Compound 50, 4-oxo-N-(2,4,6-trimethylphenyl)-1H-quinoline-3-carboxamide]
< 10	++ (between 25% to 100%)	Cc1ccccc1NC(=O)c1c[nH]c2ccccc2c1=O [Compound 459, N-(o-tolyl)-4-oxo-1H-quinoline-3-carboxamide]
< 10	++ (between 25% to 100%)	O=C(Nc1cccc(-c2cccs2)c1)c1c[nH]c2ccccc2c1=O [Compound 549, 4-oxo-N-[3-(2-thienyl)phenyl]-1H-quinoline-3-carboxamide]
< 10	++ (between 25% to 100%)	Cc1ccc(-c2ccccc2NC(=O)c2c[nH]c3ccccc3c2=O)cc1C [Compound 261, N-[2-(3,4-dimethylphenyl)phenyl]-4-oxo-1H-quinoline-3-carboxamide]
25 to 60	+ (<25%)	O=C(Nc1cnc2ccccc2c1)c1c[nH]c2ccccc2c1=O [Compound 75, 4-oxo-N-(3-quinolyl)-1H-quinoline-3-carboxamide]
10 to 25	++ (between 25% to 100%)	N#Cc1cccc(NC(=O)c2c[nH]c3ccccc3c2=O)c1 [Compound 447, N-(3-cyanophenyl)-4-oxo-1H-quinoline-3-carboxamide]
< 10	++ (between 25% to 100%)	Cc1cccc(C)c1NC(=O)c1c[nH]c2ccccc2c1=O [Compound 315, N-(2,6-dimethylphenyl)-4-oxo-1H-quinoline-3-carboxamide]
25 to 60	+ (<25%)	N#CCc1ccc(NC(=O)c2c[nH]c3ccccc3c2=O)cc1 [Compound 110, N-[4-(cyanomethyl)phenyl]-4-oxo-1H-quinoline-3-carboxamide]
25 to 60	+ (<25%)	CC(=O)Nc1cccc(NC(=O)c2c[nH]c3ccccc3c2=O)c1 [Compound 419, N-(3-acetylaminophenyl)-4-oxo-1H-quinoline-3-carboxamide]
–	++ (between 25% to 100%)	O=C(Nc1ccccc1-c1ccoc1)c1c[nH]c2ccccc2c1=O [Compound 123, N-[2-(3-furyl)phenyl]-4-oxo-1H-quinoline-3-carboxamide]
< 10	++ (between 25% to 100%)	O=C(Nc1ccccc1N1CCOCC1)c1c[nH]c2ccccc2c1=O [Compound 4, N-(2-morpholinophenyl)-4-oxo-1H-quinoline-3-carboxamide]
10 to 25	++ (between 25% to 100%)	O=C(Nc1ccc2[nH]ncc2c1)c1c[nH]c2ccccc2c1=O [Compound 217, N-(1H-indazol-5-yl)-4-oxo-1H-quinoline-3-carboxamide]
< 10	++ (between 25% to 100%)	CC1(c2cc(F)c(NC(=O)c3cnc4ccccc4c3O)cc2O)CCCCCC1 [Compound 483, N-[2-fluoro-5-hydroxy-4-(1-methylcycloheptyl)-phenyl]-4-hydroxy-quinoline-3-carboxamide]
< 10	++ (between 25% to 100%)	COc1cc(NC(=O)c2c[nH]c3ccccc3c2=O)cc(C(F)(F)F)c1 [Compound 691, N-[3-methoxy-5-(trifluoromethyl)phenyl]-4-oxo-1H-quinoline-3-carboxamide]
25 to 60	+ (<25%)	O=C(Nc1cc2ccccc2cn1)c1c[nH]c2ccccc2c1=O [Compound 309, N-(3-isoquinolyl)-4-oxo-1H-quinoline-3-carboxamide]
< 10	++ (between 25% to 100%)	O=C(Nc1ccc(C23CC4CC(CC(C4)C2)C3)cc1)c1c[nH]c2ccccc2c1=O [Compound 455, N-[4-(1-adamantyl)phenyl]-4-oxo-1H-quinoline-3-carboxamide]
< 10	+++ (>100%)	Cc1cccc2[nH]cc(C(=O)Nc3ccc(OC(C)C)cc3C(F)(F)F)c(=O)c12 [Compound 547, N-[4-isopropoxy-2-(trifluoromethyl)phenyl]-5-methyl-4-oxo-1H-quinoline-3-carboxamide]
< 10	++ (between 25% to 100%)	CC1(c2ccc(NC(=O)c3c[nH]c4ccccc4c3=O)cc2)COC1 [Compound 523, N-[4-(3-methyloxetan-3-yl)phenyl]-4-oxo-1H-quinoline-3-carboxamide]

Reference: US8614327B2 (Vertex Pharmaceuticals Incorporated, priority 2004, dated 2013)
